# Values joined by “and” are separate entries in the source; they are usually repeats but may differ in a detail not shown here. Equal values may be shown once. Read-outs that look alike come from different tables or passages of the source.
# Legend:
# [1] = Pharmacokinetics after single intravenous drip infusion, plasma LC-MS/MS; format: in vivo, Philippine macaques; conditions: male, plasma, 0.58 mg/kg, plasma
# Method: AST-3424 and AST-3424-D6 (i.e. the compound of formula I) were administered to Philippine macaques by intravenous drip infusion, and blood samples were collected at different appointed times. LC-MS/MS was used to determine concentrations of the test substances in plasma of the Philippine macaques after administration, and relevant pharmacokinetic parameters were calculated.
# Preparation method: 0.447 ml of AST-3424 (0.2 mg/ml) and 0.481 ml of AST-3424-D6 (0.2 mg/ml) were added into 104.272 ml of the dissolvent, respectively, and mixed for 5 minutes to obtain colorless and clarified solutions with pH 7.0.
# The four male Philippine macaques were purchased from Guangxi Xiongsen Primate Development Experiment Co., Ltd. All Philippine macaques were healthy with qualified medical examination and no abnormality. Three of animals were used for the experiment, and one of them was used to prepare blank plasma.
# About 0.8 ml of blood samples were collected through femoral vein and anticoagulated with heparin sodium. Appointed times of blood collection were before administration, 0.17, 0.25, 0.5, 0.75, 1, 2, and 4 hours after administration.
# The blood samples were placed on ice after collection. Next, plasma samples were separated by centrifugation, and centrifugation conditions were 3500 rpm for 10 minutes at 4° C. Then, the collected plasma samples were stored at −80° C. until analysis. The plasma samples were analyzed by LC-MS/MS by an analysis department of an experimental institution. Besides, Lower limit of quantifications (LLOQ) of AST-3424 and AST-3424-D6 detection were 1 ng/ml. The accuracy of analysis results of an accompanying standard curve and a quality control samples all met the relevant requirements of biological analysis (the accuracy of the quality control samples exceeding 66.7% was between 85˜115%) in a process of the sample detection.
# According to average blood concentration data of each group at each appointed time, the pharmacokinetic parameters of the compounds were respectively computed by a pharmacokinetic computing software, a non-compartmental model. In addition, the pharmacokinetic parameters were AUC0-t, AUC0-∞, MRT0-∞, Cmax, Tmax, t1/2, etc. In the case of the concentrations of the samples whose concentration being lower than a lower limit of quantification, the following schemes were used to compute the pharmacokinetic parameters. The samples sampled before reaching Cmax shall be computed as zero value, while the samples sampled after reaching Cmax shall be computed as non-quantifiable (marked as “BLQ”).
# After a single intravenous infusion of the compounds AST-3424 and AST-3424-D6 was administered to the Philippine macaques, the whole blood samples of the corresponding animals were collected at the appointed times. Next, the whole blood samples were processed and biologically analyzed to obtain concentrations of the compounds in the plasma at the different appointed times. Results of the assay were listed in Table 14 below, and corresponding means of the plasma-drug concentration-time curves are shown in FIG. 3.
# According to the plasma-drug concentration data of each drug group, the pharmacokinetic parameters of each compound group were computed using the non-compartmental model of the pharmacokinetic computing software. The pharmacokinetic
# [2] = Stability in hepatomicrosome with NADPH (LC-MS/MS); format: in vitro ADME, human; conditions: for % Remaining: human hepatomicrosome 0.5 mg/ml, NADPH 2 mM, 37° C., Sample 1, Sample 2
# Method: The compounds, hepatomicrosome and reduced coenzyme NADPH were mixed together. Besides, a final concentration of the hepatomicrosome was 0.5 mg/ml, and human, male and mixed types of the hepatomicrosome were purchased. A final concentration of the NADPH was 2 mM. Next, the preceding mixtures were incubated in buffer (100 mM KH2PO4—K2HPO4) at 37° C. for 0, 5, 15, 30, 45, and 60 minutes, respectively. At the appointed incubation time, the reaction was terminated by the addition of an internal standard solution. Finally, the samples were centrifuged and the supernatant was taken for detection by LC-MS/MS.
# Through mass spectrometry analysis, a concentration of the compounds in each sample was expressed by a peak-area ratio (a ratio of the peak-area of the compound to a peak-area of the internal standard). Then, each remaining percentage of the compounds (% Remaining) at each appointed incubation time was calculated with a reference that 0 minute at each concentration of the compounds. In logarithm of the remaining percentage was fitted linearly with the appointed incubation times, and a half-life and an intrinsic clearance were calculated according to the following formulas.
# The remaining percentage (% Remaining)=(a peak area ratio at a certain appointed time (PARappointed time)/a peak area ratio at 0 minute (PAR0-mm)×100 (PAR: peak area ratio)
# The elimination rate constant (k)=a negative of a slope (-gradient)
# In vitro clearance (CLint, in vitro) (ml/min/mg)=k/c (c: a concentration of hepatomicrosome in the incubation system)
# [3] = Solubility study of AST-3424 (shaking at 25° C., HPLC content); format: physicochemical; conditions: methanol, propanol, butanol, ethylene glycol, propylene glycol, glycerol, 1,3-butanediol, 1,2-butanediol; initial investigation
# [4] = Philippine macaque, intravenous, AST-3424 intravenous drip infusion 0.58 mg/kg, individual animals 101, 102, 103, read-out: Plasma-drug concentration
# [5] = Philippine macaque, intravenous, AST-3424 intravenous drip infusion 0.58 mg/kg, read-out: Plasma-drug concentration, mean
structure (smiles),measurement,setting,value
"C[C@H](OP(=O)(N1CC1)N1CC1)c1ccc([N+](=O)[O-])c(Oc2cccc(C(=O)N(C)C)c2)c1 [AST-3424, (S)-1-(3-(3-N,N-Dimethylaminocarbonyl)phenoxy-4-nitrophenyl)-1-ethyl-N,N′-bis(ethylene) phosphoramidate]",Vd,"[1]; Philippine macaque, cynomolgus monkey, iv, AST-3424 0.58 mg/kg single intravenous infusion, read-out: Vz, Mean",0.306 L/kg
same,concentration at 0.17 hr,[1]; [4],638 ng/mL
same,concentration at 0.17 hr,[1]; [5],708 ng/mL
same,concentration at 0.25 h,[1]; [4],649 ng/mL
same,concentration at 0.25 h,[1]; [5],691 ng/mL
same,concentration at 0.5 h,[1]; [4],677 ng/mL
same,concentration at 0.5 h,[1]; [5],695 ng/mL
same,concentration at 0.75 h,[1]; [4],152 ng/mL
same,concentration at 0.75 h,[1]; [5],143 ng/mL
same,concentration at 1 h,[1]; [4],57.3 ng/mL
same,concentration at 1 h,[1]; [5],46.6 ng/mL
same,concentration at 2 h,"[1]; Philippine macaque, intravenous, AST-3424 intravenous drip infusion 0.58 mg/kg, 2 hr, individual animals 101, 102, 103, LLOQ 1 ng/ml, read-out: Plasma-drug concentration",1.29 ng/mL
same,concentration at 2 hr,"[1]; Philippine macaque, intravenous, AST-3424 intravenous drip infusion 0.58 mg/kg, 2 hr, read-out: Plasma-drug concentration, mean",1.4 ng/mL
same,MRT last,"[1]; cynomolgus monkey, iv, AST-3424 0.58 mg/kg single intravenous infusion, individual animals 101, 102, 103, read-out: MRT(0−t)",7.8 min
same,MRT inf,"[1]; cynomolgus monkey, iv, AST-3424 0.58 mg/kg single intravenous infusion, individual animals 101, 102, 103, read-out: MRT(0−∞)",8.4 min
same,Tmax,"[1]; cynomolgus monkey, iv, AST-3424 0.58 mg/kg single intravenous infusion, read-out: Tmax, Mean",18.4 min
same,Vd,"[1]; cynomolgus monkey, iv, AST-3424 0.58 mg/kg single intravenous infusion, read-out: Vss, Mean",0.226 L/kg
same,Stability parameter k (elimination rate constant),[2]; human hepatomicrosome,0.0606 min⁻¹
same,% Remaining,[2]; 0 minutes,101.36% and 98.64%
same,% Remaining,[2]; 5 minutes,77.67% and 80.00%
same,% Remaining,[2]; 15 minutes,45.83% and 47.38%
same,% Remaining,[2]; 30 minutes,17.86% and 16.93%
same,% Remaining,[2]; 45 minutes,6.52% and 6.95%
same,% Remaining,[2]; 60 minutes,2.64% and 2.68%
same,"% Remaining, Average","[2]; human hepatomicrosome, 0 minutes",100.00%
same,"% Remaining, Average","[2]; human hepatomicrosome, 5 minutes",78.83%
same,"% Remaining, Average","[2]; human hepatomicrosome, 15 minutes",46.60%
same,"% Remaining, Average","[2]; human hepatomicrosome, 30 minutes",17.40%
same,"% Remaining, Average","[2]; human hepatomicrosome, 45 minutes",6.74%
same,"% Remaining, Average","[2]; human hepatomicrosome, 60 minutes",2.66%
same,half-life,"[2]; male, liver microsomes (hepatomicrosome), human hepatomicrosome, read-out: Stability parameter (t1/2)",11.4 min
same,"Solubility, in words",[3],good solubility
